pIC50: −log10 of the molar value.
Legend:
Androgen Receptor = assay: Androgen receptor ELISA assay (AR degradation) in LNCaP and/or VCaP cells; assay type: cell-based; conditions: AR PROTACs; 24 h incubation
Procedure: Compounds have been evaluated in this assay in LNCaP and/or VCaP cells utilizing similar protocols. The protocols used with VCaP cells are described below. The androgen receptor ELISA assay was performed using PathScan AR ELISA (Cell Signaling Catalog #128501 according to the following assay steps:
VCaP cells are seeded at 30,000 cells/well at a volume of 200 μL/well in VCaP assay medium [Phenol red free RPMI (Gibco Cat #11835-030); 5% Charcoal Stripped (Dextran treated) FBS (Omega Scientific, Cat #FB-04); Pen/Strep Life Technologies (Gibco Cat #: 10378-016); 0. 1 nM R1881 (Sigma, Cat #R0908) is added upon the start of the assay, not during initial plating of the cells) in Corning 3904 plates. The cells are grown for a minimum of 3 days.
(2)(i) Make 10× stock plate in media; (ii) transfer 2.5 μL of the 1000× stock to a new 10× stock plate (use 12 channel pipet, start at A (DMSO control) work thru H. When 247.5 μL of media is added to this plate, it will serve as a 10× stock; (iii) make media+1 nM R1881 for making 10× stock plate; (iv) add 247.5 μL of media with 1 nM R1881 to each well of the 10× stock plate, mix.
Then 22 μL of 10× stock is added to cells and incubated for 24 h. 1× Cell Signaling Cell lysis buffer is made (Catalogue #9803; comes with the kit)—prepare for 50 μL/well. Keep on ice. Media is aspirated, and 50 μL 1× cell lysis buffer/well is added. The cells are placed on ice for 10 minutes. The solution is mixed and transferred to PCR plate, and centrifuged at 4 C for 10 minutes at 4000 rpm. […]
Add 100 μL/well AR Elisa; cover and shake, 37 C for 2 hrs; dump, tap, wash 4× 200 μL ELISA wash buffer; add 100 μL/well mouse AR detection Ab; cover and shake, 37 C for 1 hr; dump, tap, wash 4× 200 μL ELISA wash buffer; add 100 μL/well anti-mouse—HRP conjugated Ab (comes with the kit); cover and shake, 37 C for 30 min; allow TMB reagent to come to RT; dump, tap, wash 4× 200 μL Elisa wash buffer; tap; add 100 μL TMB, shake 5 min—while watching color. […] Add 100 μL Stop solution; shake and read at 450 nm. […]

BRD4 = BRD4 (Homo sapiens (Human), UniProt O60885); assay: BRD4 c-myc ELISA assay in 22RV-1 cells; assay type: cell-based; conditions: 18 hrs, 300 nM-0.3 nM
Procedure: 22RV-1 cells were seeded at 30,000 cells/well at a volume of 75 μL/well in RPMI+10% FBS media in 96-well plates and grown overnight at 37 C. Cells were dosed with compounds at 4× concentration diluted in 0.4% DMSO; compounds were serially diluted 1:3 for 8-point dose curve. 25 ul of compound was added to cells for a final concentration starting at 300 nM-0.3 nM in 0.1% DMSO and incubated for 18 hrs. Media was aspirated, cells washed 1× with PBS and aspirated. Cells were lysed in 50 ul RIPA buffer (50 mM Tris pH8, 150 mM NaCl, 1% Tx-100, 0.1% SDS, 0.5% sodium deoxycholate) supplemented with protease and phosphatase inhibitors. Plates were incubated on ice for 15 minutes then centrifuged at 4° C. for 10 min at 4000 rpm. Added 50 ul of cleared lysate from 96-well assay plate into 96-well c-myc ELISA plate (Novex, Life Technologies Catalog #KH02041). […] The rest of the assay was performed following the protocol from the c-myc ELISA kit. Data was analyzed and plotted using GraphPad Prism software.

VHL = VHL (Homo sapiens (Human), UniProt P40337); assay: VHL fluorescence polarization (FP) competition assay; assay type: binding

**Q.** Cc1ncsc1-c1ccc([C@H](C)NC(=O)[C@@H]2C[C@@H](O)CN2C(=O)[C@H](C(C)C)n2cc(OCCCOCCC(O)CCOc3ccc(N4C(=S)N(c5ccc(C#N)c(C(F)(F)F)c5)C(=O)C4(C)C)cc3)cn2)cc1 (stereo partly shown) was tested. Which “Dmax (highest percentage of Androgen Receptor degradation observed)” value (Androgen Receptor) did it give?
**A.** +++ (51%≤Dmax≤70%)

**Q.** Which “Dmax (highest percentage of Androgen Receptor degradation observed)” value (Androgen Receptor) does the source give for Cc1ncsc1-c1ccc(CNC(=O)[C@@H]2C[C@@H](O)CN2C(=O)C(C(C)C)n2cc(OC3CCN(c4ccc(-c5ccc(N6C(=S)N(c7ccc(C#N)c(C(F)(F)F)c7)C(=O)C6(C)C)cc5)cn4)CC3)cn2)cc1 (stereo partly shown) here?
**A.** ++ (26%≤Dmax≤50%)

**Q.** Cc1ncsc1-c1ccc([C@H](C)NC(=O)[C@@H]2C[C@@H](O)CN2C(=O)[C@H](C(C)C)n2cc(-c3ccnc(N4CC[C@@H](Nc5ccc(C(=O)N[C@H]6C(C)(C)[C@H](Oc7ccc(C#N)c(Cl)c7)C6(C)C)cc5)C4)c3)cn2)cc1 was tested. Which “Dmax (highest percentage of Androgen Receptor degradation observed)” value (Androgen Receptor) did it give?
**A.** ++ (26%≤Dmax≤50%)

**Q.** With Cc1ncsc1-c1ccc([C@H](C)NC(=O)[C@@H]2C[C@@H](O)CN2C(=O)[C@H](C(C)C)n2cc(-c3ccnc(O[C@H]4C[C@H](NC(=O)C[C@@H]5N=C(c6ccc(Cl)cc6)c6c(sc(C)c6C)-n6c(C)nnc65)C4)c3)cn2)cc1 as the compound, how does the “cMyc Imax” value (BRD4) read?
**A.** ++++ (71%≤Imax)

**Q.** With Cc1ncsc1-c1ccc([C@H](C)NC(=O)[C@@H]2C[C@@H](O)CN2C(=O)[C@H](C(C)C)n2cc(-c3ccnc(N4CC[C@H](NC(=O)C[C@@H]5N=C(c6ccc(Cl)cc6)c6c(sc(C)c6C)-n6c(C)nnc65)C4)c3)cn2)cc1 as the compound, how does the “cMyc Imax” value (BRD4) read?
**A.** ++++ (71%≤Imax)

**Q.** For Cc1ncsc1-c1ccc([C@H](C)NC(=O)[C@@H]2C[C@@H](O)CN2C(=O)[C@@H](n2cc(-c3ccnc(O[C@H]4C[C@@H](NC(=O)C[C@@H]5N=C(c6ccc(Cl)cc6)c6c(sc(C)c6C)-n6c(C)nnc65)C4)c3)cn2)C(C)(C)C)cc1, which “cMyc Imax” value (BRD4) is on record?
**A.** ++++ (71%≤Imax)

**Q.** With Cc1ncsc1-c1ccc(CNC(=O)[C@@H]2C[C@@H](O)CN2C(=O)[C@H](C(C)C)n2cc(-c3cccc(O[C@H](C)CNC(=O)C[C@@H]4N=C(c5ccc(Cl)cc5)c5c(sc(C)c5C)-n5c(C)nnc54)c3)cn2)cc1 as the compound, how does the “cMyc Imax” value (BRD4) read?
**A.** ++++ (71%≤Imax)

**Q.** With Cc1ncsc1-c1ccc(CNC(=O)C2(C)C[C@@H](O)CN2C(=O)[C@H](C(C)C)N2Cc3ccccc3C2=O)cc1 (single isomer, unassigned) [Example 128] as the compound, how does the pIC50 (VHL; 1% in DMSO) read?
**A.** < 4.00

**Q.** Cc1ncsc1-c1ccc(CNC(=O)C2(C)C[C@@H](O)CN2C(=O)[C@H](C(C)C)N2Cc3ccccc3C2=O)cc1 (single isomer, unassigned) [Example 129] was tested. Which pIC50 (VHL; 1% in DMSO) did it give?
**A.** 4.71

**Q.** Which results are given for CSC[C@H](NC(=O)CCC(C)C)C(=O)N1C[C@H](O)C[C@H]1C(=O)NCc1ccc(-c2scnc2C)cc1 [Example 22, (2S,4R)-4-hydroxy-1-((R)-2-(4-methylpentanamido)-3-(methylthio)propanoyl)-N-(4-(4-methylthiazol-5-yl)benzyl)pyrrolidine-2-carboxamide]?
**A.** pIC50 (VHL; 1% in DMSO): 5.20; pIC50 (VHL; 10% in DMSO): 5.08

**Q.** How did the pIC50 (VHL; 1% in DMSO) turn out when Cc1ncsc1-c1ccc(CNC(=O)[C@@H]2C[C@@H](O)CN2C(=O)[C@@H](NC(=O)c2ccccc2C#N)C(C)(C)C)cc1 [Example 70, (2S,4R)-1-((S)-2-(2-cyanobenzamido)-3,3-dimethylbutanoyl)-4-hydroxy-N-(4-(4-methylthiazol-5-yl)benzyl)pyrrolidine-2-carboxamide] was run?
**A.** 5.69

**Q.** And the pIC50 (VHL; 10% in DMSO)?
**A.** 5.92

**Q.** Which results are given for Cc1ncsc1-c1ccc(CNC(=O)[C@@H]2C[C@@H](O)CN2C(=O)[C@@H](NC(=O)C2CCN(C)CC2)C(C)(C)C)cc1 [Example 75, N—((S)-1-((2S,4R)-4-hydroxy-2-(4-(4-methylthiazol-5-yl)benzylcarbamoyl)pyrrolidin-1-yl)-3,3-dimethyl-1-oxobutan-2-yl)-1-methylpiperidine-4-carboxamide]?
**A.** pIC50 (VHL; 1% in DMSO): 4.86; pIC50 (VHL; 10% in DMSO): 5.03

**Q.** Cc1ncsc1-c1ccc(CNC(=S)[C@@H]2C[C@@H](O)CN2C(=O)[C@H](C(C)C)N2Cc3ccccc3C2=O)cc1 [Example 110, (2S,4R)-4-hydroxy-1-((S)-3-methyl-2-(1-oxoisoindolin-2-yl)butanoyl)-N-(4-(4-methylthiazol-5-yl)benzyl)pyrrolidine-2-carbothioamide] was tested. Which pIC50 (VHL; 1% in DMSO) did it give?
**A.** 4.67

Reference: patent US11512083B2, “Compounds and methods for the enhanced degradation of targeted proteins” (Arvinas Operations, Inc., priority 2015, dated 2022)
